Tests used:
[1] = target: Human immunodeficiency virus type 1 integrase (Human immunodeficiency virus 1, UniProt Q7ZJM1); experiment: Inhibition of HIV1 integrase 3'-strand transfer
[2] = test system: Human immunodeficiency virus 1; experiment: Antiviral activity against HIV1 NL4-3 infected in human Hut78 cells assessed as inhibition of viral replication in presence of 10 % fetal bovine serum; format: functional, organism-based; conditions: Human immunodeficiency virus 1, NL4-3, HuT78
[3] = test system: Human immunodeficiency virus 1; experiment: Antiviral activity against HIV1 NL4-3 infected in human Hut78 cells assessed as inhibition of viral replication in 50 % normal human serum; format: functional, organism-based; conditions: Human immunodeficiency virus 1, NL4-3, HuT78, Serum

Chain of Human immunodeficiency virus type 1 integrase (Q7ZJM1 whole entry): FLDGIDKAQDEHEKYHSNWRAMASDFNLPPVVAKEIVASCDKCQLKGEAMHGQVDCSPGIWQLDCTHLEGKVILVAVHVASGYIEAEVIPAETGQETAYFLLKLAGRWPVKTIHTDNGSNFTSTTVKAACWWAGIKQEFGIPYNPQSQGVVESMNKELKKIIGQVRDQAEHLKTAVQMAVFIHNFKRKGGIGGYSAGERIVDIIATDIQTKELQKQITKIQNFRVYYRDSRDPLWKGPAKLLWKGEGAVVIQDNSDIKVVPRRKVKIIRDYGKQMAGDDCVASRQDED

Structure (SMILES) | IC50 [1] | EC50 [2] | EC50 [3]
Cn1c2ccccc2n2c(=O)c(O)c(C(=O)NCc3ccc(F)cc3)nc12 | 20.2 µM | – | –
Cc1cn2c(=O)c(O)c(C(=O)NCc3ccc(F)cc3)nc2s1 | 4.25 µM | – | –
CN1CCN(c2cc(N(C)S(C)(=O)=O)c3nc(C(=O)NCc4ccc(F)cc4)c(O)c(=O)n3c2)CC1 | – | 0.0198 µM | 0.0615 µM
O=C(NCc1ccc(F)cc1)c1nc2c(N3CCOCC3)cc(N3CCOCC3)cn2c(=O)c1O | 0.755 µM | 0.73 µM | 1.55 µM
O=C(NCc1ccc(F)cc1)c1nc2[nH]c3ccccc3n2c(=O)c1O | > 100 µM | – | –
O=C(NCc1ccc(F)cc1)c1nc2c3ccc(N4CCOCC4)cc3on2c(=O)c1O | > 10 µM | – | –
CCN(C(=O)C(=O)N1CCOCC1)c1cccn2c(=O)c(O)c(C(=O)NCc3ccc(F)cc3)nc12 | – | 0.031 µM | –
O=C(NCc1ccc(F)cc1)c1nc2cc(-c3ccccc3)[nH]n2c(=O)c1O | > 100 µM | – | –
O=C(NCc1ccc(F)cc1)c1nc2c3ccccc3[nH]n2c(=O)c1O | > 10 µM | – | –
O=C(NCc1ccc(F)cc1)c1nc2ccccn2c(=O)c1O | 0.587 µM | – | –
O=C(NCc1ccc(F)cc1)c1nc2sc3ccccc3n2c(=O)c1O | > 30 µM | – | –
O=C(NCc1ccc(F)cc1)c1nc2sc(N3CCOCC3)cn2c(=O)c1O | 1.13 µM | – | –
Cc1cc2nc(C(=O)NCc3ccc(F)cc3)c(O)c(=O)n2o1 | 5.1 µM | – | –
Cc1nnc(C(=O)NC(C)(C)c2nc(C(=O)NCc3ccc(F)cc3)c(O)c(=O)n2C)o1 [RALTEGRAVIR POTASSIUM] | – | 0.0094 µM | 0.0071 µM
O=C(NCc1ccc(F)cc1)c1nc2c(N3CCCS3(=O)=O)cc(N3CCNCC3)cn2c(=O)c1O | – | 0.28 µM | 0.043 µM
O=C(NCc1ccc(F)cc1)c1nc2c3ccccc3on2c(=O)c1O | > 10 µM | – | –
CN1CCN(c2cc(N3CCN(C)S3(=O)=O)c3nc(C(=O)NCc4ccc(F)cc4)c(O)c(=O)n3c2)CC1 | – | 0.003 µM | 0.004 µM
O=C(NCc1ccc(F)cc1)c1nc2sccn2c(=O)c1O | 33.2 µM | – | –
Cn1c2ccccc2c2nc(C(=O)NCc3ccc(F)cc3)c(O)c(=O)n21 | 0.626 µM | – | –
COc1cccc2c1sc1nc(C(=O)NCc3ccc(F)cc3)c(O)c(=O)n12 | > 50 µM | – | –
N#Cc1c[nH]n2c(=O)c(O)c(C(=O)NCc3ccc(F)cc3)nc12 | 13.7 µM | – | –
Cn1ccc2nc(C(=O)NCc3ccc(F)cc3)c(O)c(=O)n21 | > 30 µM | – | –

The next lines start with results.

IC50 [1] | EC50 [2] | Structure (SMILES) | EC50 [3]
0.275 µM | 0.08 µM | O=C(NCc1ccc(F)cc1)c1nc2c(OCc3ccc(F)cc3)cc(N3CCOCC3)cn2c(=O)c1O | –
0.195 µM | 0.0103 µM | O=C(NCc1ccc(F)cc1)c1nc2c(N3CCCS3(=O)=O)cc(N3CCOCC3)cn2c(=O)c1O | 0.018 µM
0.13 µM | 0.0002 µM | O=C(NCc1cc(Cl)cc(Cl)c1)c1nc2c(N3CCCS3(=O)=O)cc(N3CCOCC3)cn2c(=O)c1O | 0.043 µM
0.429 µM | 0.012 µM | O=C(NCc1ccc(F)cc1)c1nc2c(OCC3CC3)cc(N3CCOCC3)cn2c(=O)c1O | 0.59 µM
0.135 µM | 0.011 µM | O=C(NCc1ccc(F)cc1)c1nc2c(Cl)cc(N3CCOCC3)cn2c(=O)c1O | 0.158 µM
0.085 µM | 0.006 µM | O=C(NCc1ccc(F)cc1)c1nc2c(I)cc(N3CCOCC3)cn2c(=O)c1O | 0.05 µM
0.0768 µM | – | Cn1ccn2c(=O)c(O)c(C(=O)NCc3ccc(F)cc3)nc12 | –
0.11 µM | 0.008 µM | CC(=O)N1CCN(c2cc(Br)c3nc(C(=O)NCc4ccc(F)cc4)c(O)c(=O)n3c2)CC1 | 0.04 µM
0.445 µM | – | O=C(NCc1ccc(F)cc1)c1nc2ccc(Br)cn2c(=O)c1O | –
0.245 µM | 0.005 µM | CC(C)Oc1cc(N2CCOCC2)cn2c(=O)c(O)c(C(=O)NCc3ccc(F)cc3)nc12 | –
0.17 µM | 0.0095 µM | COc1cc(N2CCOCC2)cn2c(=O)c(O)c(C(=O)NCc3ccc(F)cc3)nc12 | 1.4 µM
0.13 µM | 0.007 µM | O=C(NCc1ccc(F)cc1)c1nc2c(Br)cc(N3CCOCC3)cn2c(=O)c1O | 0.07 µM
0.08 µM | 0.215 µM | O=C(NCc1ccc(F)cc1)c1nc2ccc(N3CCOCC3)cn2c(=O)c1O | –

Reference: ChEMBL document CHEMBL1255511, “Design of a series of bicyclic HIV-1 integrase inhibitors. Part 1: selection of the scaffold” (Bioorg Med Chem Lett, 2010)
